Experimental data published in patent US20220153751A1, “BIFUNCTIONAL COMPOUNDS” (BioTheryX, Inc., priority 2018, published 2022).

What was measured:
Format in all cases: cell-based
CDK9 = target: T1, CDK9 (Homo sapiens, UniProt P50750); assay: CDK9 degradation assay (Western blot, MV-4-11 cells); details: 6-8 h; for Dmax at 0.1 µM: MV4-11, 0.1 μM; for Dmax at 1 µM: MV4-11, 1 μM
T1 construct: Whole cell extracts were prepared using RIPA buffer; endogenous in cells; host or cells: MV-4-11
Experimental: (§1) MV-4-11 cells were grown in RPMI 1640 media supplemented with 10% fetal bovine serum, streptomycin and penicillin.
(§2) Cells were cultured at approximately 10^6 cells per mL and incubated in DMSO or the indicated compound for 6-8 h. Whole cell extracts were prepared using RIPA buffer according to manufacturer's protocol (Pierce). Briefly, 3×10^6 cells were washed once in PBS, the cell pellets were resuspended in RIPA buffer and allowed to incubate for 15 minutes on ice. Cells debris was removed by centrifugation and the cleared whole cell lysates were transferred to new tubes for further analysis.
(§3) For Western blot analysis, whole cell protein extracts were separated on 4-12% SDS-polyacrylamide gels, transferred to nitrocellulose and probed with the indicated primary antibodies. Membranes were subsequently washed and probed with the appropriate IRDye secondary antibodies (LI-COR). The signal was detected using the Odyssey Imaging System (LI-COR).
(§4) The following antibodies were used in these studies: Anti-eRF3/GSPT1: Abcam, ab126090 (Cambridge, Mass.); Anti-Ikaros: Abcam, ab191394 (Cambridge, Mass.); Anti-CK1α: Abcam, ab108296 (Cambridge, Mass.); Anti-CDK9: Santa Cruz Biotechnology, sc13130 (Dallas, Tex.); Anti-CDK16: Millipore Sigma, HPA001366 (St. Louis, Mo.); 3-actin (8H10comD10) mouse monoclonal antibody: Cell Signaling Technology, #3700 (Danvers, Mass.); IRDye 680RD Goat anti-rabbit antibody: LI-COR, 926-68071 (Lincoln, Nebr.); IRDye 800CW Goat anti-mouse antibody: LI-COR, 926-32210 (Lincoln, Nebr.).
(§5) CDK9 activities are shown in Table 4 at two different concentrations. CDK16 activities are shown in Table 5 at two different concentrations. In each of Tables 1-5, the % degradation values are reported as “A”, “B”, “C”, or “D”. “A” represents a % degradation value of less than 25% (value <25%). “B” represents a % degradation value of equal to or more than 25% and less than 50% (25%≤value<50%). “C” represents a % degradation value of equal to or more than 50% and less than 75% (50%≤value<75%). “D” represents a % degradation value of equal to or more than 75% (value ≥75%).

IKAROS = target: T2, IKAROS (Homo sapiens, UniProt Q13422+Q96SW2); assay: IKAROS degradation assay (Western blot, MV-4-11 cells); details: MV4-11, 6-8 h
T2 construct: endogenous in cells; host or cells: MV-4-11
Experimental: as §1, §2, §3, §4, §5

CDK16 = target: T3, CDK16 (Homo sapiens, UniProt Q00536); assay: CDK16 degradation assay (Western blot, MV-4-11 cells); details: 6-8 h; for Dmax at 0.1 µM: MV4-11, 0.1 μM; for Dmax at 1 µM: MV4-11, 1 μM
T3 construct: Whole cell extracts were prepared using RIPA buffer; endogenous in cells; host or cells: MV-4-11
Experimental: as §1, §2, §3, §4, §5

MOLM-13 cells = assay: MOLM-13 cell viability assay (CellTiter-Glo); details: Homo sapiens, MOLM-13, 72 h, 3 days, read-out: MOLM-13 Cell Viability % DMSO at 1 μM
Experimental: MOLM-13 cells were cultured in RPMI 1640 media supplemented with 10% fetal bovine serum, streptomycin and penicillin, and were plated in walled 96-well plates at 2500 cells/well. Cells were incubated in DMSO (control) or the indicated compound for 3 days at 37° C. and 5% CO2. Following the incubation period, 100 μL of CellTiterGlow (CTG) reagent (CellTiter-Glo® Luminescent Cell Viability Assay, Promega (Madison, Wis.)) was added to each well. Following a 10 minutes incubation with shaking, luminescence was measured using the EnVision Multimode plate reader.
The MOLM-13 cell viability values as % DMSO are reported as “A”, “B”, “C”, or “D”. “A” represents a % viability value of less than 50% (value <50%). “B” represents a % viability value of equal to or more than 50% and less than 70% (50%≤value<70%). “C” represents a % viability value of equal to or more than 70% and less than 90% (70%≤value<90%). “D” represents a % viability value of equal or more than 90% (value ≥90%).

GSPT1 = target: T4, GSPT1 (Homo sapiens, UniProt P15170+Q96SW2); assay: GSPT1 degradation assay (Western blot, MV-4-11 cells); details: MV4-11, 6-8 h
T4 construct: Whole cell extracts were prepared using RIPA buffer; endogenous in cells; host or cells: MV-4-11
Experimental: as §1, §2, §3, §4, §5

TNF-α = TNF-α inhibition assay, LPS-induced PBMCs / CD14+ monocytes (Meso Scale); details: 1 h pretreatment, 100 ng/mL LPS 18-24 h
Experimental: (§6) Either frozen primary blood mononuclear cells (PBMCs) or frozen CD14+ mobilized peripheral blood monocytes were purchased from AllCells (PB003F, Normal Peripheral Blood MNC (Alameda, Calif.)). Cells were quick thawed, washed 1-time with RPMI-1640 (10% FBS/1% Pen-Strep) and plated in 96 well plates at 200,000 cells per well. Cells were pretreated with DMSO only or with the indicated compound for 1 h and then induced with 100 ng/mL lipopolysaccharide (LPS) for 18-24 h. The supernatant was analyzed for IL-1β, IL-6, and TNFα, using Meso Scale assay according to manufacturer's protocol. The negative control wells were treated with DMSO.
(§7) In Table 6, the % inhibition values are reported as “A”, “B”, “C”, or “D”. “A” represents a % inhibition value of less than 50% (value <50%). “B” represents a % inhibition value of equal to or more than 50% and less than 70% (50%≤value<70%). “C” represents a % inhibition value of equal to or more than 70% and less than 90% (70%≤value<90%). “D” represents a % inhibition value of equal or more than 90% (value ≥90%). In Table 7, the fold-change values are reported as “A”, “B”, “C”, or “D”. “A” represents a fold-change value of equal to or less than 0.1 (value ≤0.1). “B” represents a fold-change value of more than 0.1 and equal to or less than 0.5 (0.1<value≤0.5). “C” represents a fold-change value of more than 0.5 and equal to or less than 1 (0.5<value≤1). “D” represents a fold-change value of more than 1 (value >1).

IL-6 = IL-6 inhibition assay, LPS-induced PBMCs / CD14+ monocytes (Meso Scale); details: 1 h pretreatment, 100 ng/mL LPS 18-24 h
Experimental: as §6, §7

IL-1β = IL-1β inhibition assay, LPS-induced PBMCs / CD14+ monocytes (Meso Scale); details: 1 h pretreatment, 100 ng/mL LPS 18-24 h
Experimental: as §6, §7

T4 sequence (P15170 whole entry): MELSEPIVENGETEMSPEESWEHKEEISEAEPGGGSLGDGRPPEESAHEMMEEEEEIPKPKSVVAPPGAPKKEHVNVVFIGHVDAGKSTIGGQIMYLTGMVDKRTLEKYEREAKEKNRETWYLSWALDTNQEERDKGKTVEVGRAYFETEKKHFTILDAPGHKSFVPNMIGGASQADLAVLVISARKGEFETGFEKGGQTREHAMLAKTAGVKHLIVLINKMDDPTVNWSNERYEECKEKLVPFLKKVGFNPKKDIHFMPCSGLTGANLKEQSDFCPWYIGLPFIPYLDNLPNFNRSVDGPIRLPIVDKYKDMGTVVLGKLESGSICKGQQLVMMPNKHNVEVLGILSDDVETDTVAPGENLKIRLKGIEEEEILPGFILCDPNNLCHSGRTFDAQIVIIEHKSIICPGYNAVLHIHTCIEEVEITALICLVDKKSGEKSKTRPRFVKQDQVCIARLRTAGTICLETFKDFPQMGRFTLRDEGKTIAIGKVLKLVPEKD
T4 sequence (Q96SW2 whole entry): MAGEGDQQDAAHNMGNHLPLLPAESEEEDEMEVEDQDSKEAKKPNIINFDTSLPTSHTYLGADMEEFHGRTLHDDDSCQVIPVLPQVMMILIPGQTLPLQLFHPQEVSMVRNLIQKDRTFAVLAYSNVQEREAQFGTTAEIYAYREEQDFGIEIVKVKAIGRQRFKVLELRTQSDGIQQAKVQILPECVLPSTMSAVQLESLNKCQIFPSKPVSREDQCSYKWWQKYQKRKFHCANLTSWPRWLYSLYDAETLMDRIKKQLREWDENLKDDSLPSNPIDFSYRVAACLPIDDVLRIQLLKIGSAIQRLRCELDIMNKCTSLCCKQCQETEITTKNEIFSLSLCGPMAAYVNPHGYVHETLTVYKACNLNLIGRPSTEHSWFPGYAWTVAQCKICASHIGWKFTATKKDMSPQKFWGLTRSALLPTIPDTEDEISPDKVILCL
T4 sequence (Q16531 whole entry partner): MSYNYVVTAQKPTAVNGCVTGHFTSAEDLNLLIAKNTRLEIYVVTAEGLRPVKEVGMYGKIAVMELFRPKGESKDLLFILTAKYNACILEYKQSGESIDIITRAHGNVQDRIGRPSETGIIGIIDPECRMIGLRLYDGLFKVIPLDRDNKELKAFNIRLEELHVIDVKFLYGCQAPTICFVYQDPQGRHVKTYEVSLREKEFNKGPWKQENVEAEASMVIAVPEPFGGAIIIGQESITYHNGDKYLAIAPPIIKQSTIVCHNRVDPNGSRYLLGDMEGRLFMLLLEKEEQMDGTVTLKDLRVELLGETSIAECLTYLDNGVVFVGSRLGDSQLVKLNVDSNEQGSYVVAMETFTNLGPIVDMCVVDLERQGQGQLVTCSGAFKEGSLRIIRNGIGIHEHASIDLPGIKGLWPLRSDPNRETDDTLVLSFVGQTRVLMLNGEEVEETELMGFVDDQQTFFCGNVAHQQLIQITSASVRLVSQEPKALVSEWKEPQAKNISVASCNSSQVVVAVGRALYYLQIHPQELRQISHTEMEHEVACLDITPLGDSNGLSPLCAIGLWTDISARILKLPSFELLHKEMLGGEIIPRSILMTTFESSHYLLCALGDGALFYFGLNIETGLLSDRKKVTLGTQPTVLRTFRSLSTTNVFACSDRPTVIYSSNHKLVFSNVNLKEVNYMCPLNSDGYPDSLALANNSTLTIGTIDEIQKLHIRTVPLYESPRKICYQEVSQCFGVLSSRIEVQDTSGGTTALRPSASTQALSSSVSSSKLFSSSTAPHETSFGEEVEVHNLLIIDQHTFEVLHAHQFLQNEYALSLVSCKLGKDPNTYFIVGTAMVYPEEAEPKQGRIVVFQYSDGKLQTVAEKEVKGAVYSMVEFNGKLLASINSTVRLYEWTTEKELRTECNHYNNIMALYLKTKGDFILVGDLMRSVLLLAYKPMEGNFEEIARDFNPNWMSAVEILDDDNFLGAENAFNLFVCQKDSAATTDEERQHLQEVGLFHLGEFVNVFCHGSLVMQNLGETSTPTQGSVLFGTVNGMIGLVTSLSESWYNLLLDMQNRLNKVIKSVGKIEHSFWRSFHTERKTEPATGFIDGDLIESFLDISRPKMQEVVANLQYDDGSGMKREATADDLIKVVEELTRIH
T1 sequence (P50750 whole entry): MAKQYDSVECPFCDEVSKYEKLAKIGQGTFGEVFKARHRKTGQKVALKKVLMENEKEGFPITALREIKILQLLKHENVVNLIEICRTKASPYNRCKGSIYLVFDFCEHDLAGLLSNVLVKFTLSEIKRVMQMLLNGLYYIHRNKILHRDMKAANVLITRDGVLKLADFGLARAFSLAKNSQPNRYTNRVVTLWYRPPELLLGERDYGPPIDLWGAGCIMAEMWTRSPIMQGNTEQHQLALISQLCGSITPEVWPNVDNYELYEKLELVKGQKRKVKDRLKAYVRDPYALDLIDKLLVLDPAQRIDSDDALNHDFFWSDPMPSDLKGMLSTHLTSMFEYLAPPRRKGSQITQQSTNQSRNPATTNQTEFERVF
T2 sequence (Q13422 whole entry): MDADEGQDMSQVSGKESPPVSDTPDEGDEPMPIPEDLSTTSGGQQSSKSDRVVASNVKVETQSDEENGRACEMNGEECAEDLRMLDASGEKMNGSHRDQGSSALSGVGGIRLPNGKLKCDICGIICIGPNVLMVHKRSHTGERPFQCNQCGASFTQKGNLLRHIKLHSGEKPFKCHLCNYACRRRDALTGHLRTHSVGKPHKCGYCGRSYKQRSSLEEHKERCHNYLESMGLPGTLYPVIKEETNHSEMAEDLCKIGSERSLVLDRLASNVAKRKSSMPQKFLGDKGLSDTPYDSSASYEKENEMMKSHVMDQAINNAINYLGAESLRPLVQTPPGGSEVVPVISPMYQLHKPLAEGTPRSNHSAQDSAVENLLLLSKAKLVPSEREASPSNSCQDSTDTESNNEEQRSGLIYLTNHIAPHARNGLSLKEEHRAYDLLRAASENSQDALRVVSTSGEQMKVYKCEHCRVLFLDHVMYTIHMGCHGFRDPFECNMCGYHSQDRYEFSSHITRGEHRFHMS
T2 sequence (Q96SW2 whole entry): as the sequence (Q96SW2 whole entry) above
T2 sequence (Q16531 whole entry partner): as the sequence (Q16531 whole entry partner) above
T3 sequence (Q00536 whole entry): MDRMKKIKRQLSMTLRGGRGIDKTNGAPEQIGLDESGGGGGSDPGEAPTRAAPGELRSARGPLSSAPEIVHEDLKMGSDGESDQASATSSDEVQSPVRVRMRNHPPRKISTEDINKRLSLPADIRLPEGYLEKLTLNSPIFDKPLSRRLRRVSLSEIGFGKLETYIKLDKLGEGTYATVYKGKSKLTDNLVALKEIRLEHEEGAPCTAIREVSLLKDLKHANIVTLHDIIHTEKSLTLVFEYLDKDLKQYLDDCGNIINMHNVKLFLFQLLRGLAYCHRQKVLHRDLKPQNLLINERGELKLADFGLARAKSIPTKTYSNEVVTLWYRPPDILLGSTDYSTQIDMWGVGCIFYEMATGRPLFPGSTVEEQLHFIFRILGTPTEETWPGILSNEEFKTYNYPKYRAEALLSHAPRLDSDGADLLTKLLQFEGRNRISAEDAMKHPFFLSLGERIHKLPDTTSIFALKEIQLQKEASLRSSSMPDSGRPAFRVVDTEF

Row | Structure (SMILES) | Dmax at 0.1 µM (CDK9) | Dmax at 1 µM (CDK9) | Dmax at 1 µM (IKAROS) | Dmax at 0.1 µM (CDK16) | Dmax at 1 µM (CDK16) | viability at 1 µM (MOLM-13 cells) | Dmax at 1 µM (GSPT1) | inhibition at 1 µM (TNF-α) | inhibition at 1 µM (IL-6) | inhibition at 1 µM (IL-1β)
1 | CC(C)(C)c1cnc(CSc2cnc(NC(=O)C3CCN(CC(=O)NCCCCNCC(=O)NCc4cc5c(s4)C(=O)N(C4CCC(=O)NC4=O)C5)CC3)s2)o1 (centres unmarked) [Compound 14, N-(5-(((5-(tert-butyl)oxazol-2-yl)methyl)thio)thiazol-2-yl)-1-(2-((4-((2-(((5-(2,6-dioxopiperidin-3-yl)-6-oxo-5,6-dihydro-4H-thieno[2,3-c]pyrrol-2-yl)methyl)amino)-2-oxoethyl)amino)butyl)amino)-2-oxoethyl)piperidine-4-carboxamide] | 25 to 50% | ≥ 75% | < 25% | < 25% | 25 to 50% | > 90% | 25 to 50% |  |  | 
2 | Cn1ncc(-c2nc(N[C@H]3CC[C@H](NCC(=O)NCCCCNCC(=O)NCc4cc5c(s4)C(=O)N(C4CCC(=O)NC4=O)C5)CC3)ncc2F)c1CC1CC1 (some centres unmarked) [Compound 29, 2-(((1r,4r)-4-((4-(5-(cyclopropylmethyl)-1-methyl-1H-pyrazol-4-yl)-5-fluoropyrimidin-2-yl)amino)cyclohexyl)amino)-N-(4-((2-(((5-(2,6-dioxopiperidin-3-yl)-6-oxo-5,6-dihydro-4H-thieno[2,3-c]pyrrol-2-yl)methyl)amino)-2-oxoethyl)amino)butyl)acetamide] | 25 to 50% | 50 to 75% | 50 to 75% | 25 to 50% | 50 to 75% | > 90% | < 25% |  |  | 
3 | Cn1ncc(-c2nc(N[C@H]3CC[C@H](NCC(=O)NCCCCCNCC(=O)NCc4scc5c4CN(C4CCC(=O)NC4=O)C5=O)CC3)ncc2F)c1CC1CC1 (some centres unmarked) [Compound 32, 2-(((1r,4r)-4-((4-(5-(cyclopropylmethyl)-1-methyl-1H-pyrazol-4-yl)-5-fluoropyrimidin-2-yl)amino)cyclohexyl)amino)-N-(5-((2-(((5-(2,6-dioxopiperidin-3-yl)-4-oxo-5,6-dihydro-4H-thieno[3,4-c]pyrrol-1-yl)methyl)amino)-2-oxoethyl)amino)pentyl)acetamide] | 50 to 75% | ≥ 75% | 50 to 75% | 50 to 75% | ≥ 75% | > 90% | 25 to 50% |  |  | 
4 | Cn1ncc(-c2nc(N[C@H]3CC[C@H](NCC(=O)NCCCCNCC(=O)NCc4scc5c4CN(C4CCC(=O)NC4=O)C5=O)CC3)ncc2Cl)c1CC1CC1 (some centres unmarked) [Compound 38, 2-(((1r,4r)-4-((5-chloro-4-(5-(cyclopropylmethyl)-1-methyl-1H-pyrazol-4-yl)pyrimidin-2-yl)amino)cyclohexyl)amino)-N-(4-((2-(((5-(2,6-dioxopiperidin-3-yl)-4-oxo-5,6-dihydro-4H-thieno[3,4-c]pyrrol-1-yl)methyl)amino)-2-oxoethyl)amino)butyl)acetamide] | 50 to 75% | ≥ 75% | 25 to 50% | 50 to 75% | ≥ 75% | > 90% | 50 to 75% |  |  | 
5 | Cn1ncc(-c2nc(N[C@H]3CC[C@H](NCC(=O)NCCOCCOCCOCCNCC(=O)NCc4cc5c(s4)C(=O)N(C4CCC(=O)NC4=O)C5)CC3)ncc2Cl)c1CC1CC1 (some centres unmarked) [Compound 43, 14-(2-(((1r,4r)-4-((5-chloro-4-(5-(cyclopropylmethyl)-1-methyl-1H-pyrazol-4-yl)pyrimidin-2-yl)amino)cyclohexyl)amino)acetamido)-N-((5-(2,6-dioxopiperidin-3-yl)-6-oxo-5,6-dihydro-4H-thieno[2,3-c]pyrrol-2-yl)methyl)-6,9,12-trioxa-3-azatetradecanamide] |  |  |  |  |  | 50 to 70% | 50 to 75% | < 50% | < 50% | < 50%
6 | Cn1ncc(-c2nc(N[C@H]3CC[C@H](NCC(=O)NCCOCCOCCOCCNc4cccc5c4C(=O)N(C4CCC(=O)NC4=O)C5=O)CC3)ncc2Cl)c1CC1CC1 (some centres unmarked) [Compound 49, 2-(((1r,4r)-4-((5-chloro-4-(5-(cyclopropylmethyl)-1-methyl-1H-pyrazol-4-yl)pyrimidin-2-yl)amino)cyclohexyl)amino)-N-(2-(2-(2-(2-((2-(2,6-dioxopiperidin-3-yl)-1,3-dioxoisoindolin-4-yl)amino)ethoxy)ethoxy)ethoxy)ethyl)acetamide] |  |  | 50 to 75% |  |  | > 90% | < 25% |  |  | 
7 | Cn1ncc(-c2nc(N[C@H]3CC[C@H](NCCOCCOCCOCCNCc4cc5c(s4)C(=O)N(C4CCC(=O)NC4=O)C5)CC3)ncc2Cl)c1CC1CC1 (some centres unmarked) [Compound 66, 3-(2-(13-(((1r,4r)-4-((5-chloro-4-(5-(cyclopropylmethyl)-1-methyl-1H-pyrazol-4-yl)pyrimidin-2-yl)amino)cyclohexyl)amino)-5,8,11-trioxa-2-azatridecyl)-6-oxo-4,6-dihydro-5H-thieno[2,3-c]pyrrol-5-yl)piperidine-2,6-dione] |  |  |  |  |  | 50 to 70% | 50 to 75% | < 50% | < 50% | < 50%
8 | Cn1ncc(-c2nc(N[C@H]3CC[C@H](NCCCCCCCNCc4ccc(OCc5scc6c5CN([C@H]5CCC(=O)NC5=O)C6=O)cc4)CC3)ncc2Cl)c1CC1CC1 [Compound 68, (S)-3-(1-((4-(((7-(((1r,4r)-4-((5-chloro-4-(5-(cyclopropylmethyl)-1-methyl-1H-pyrazol-4-yl)pyrimidin-2-yl)amino)cyclohexyl)amino)heptyl)amino)methyl)phenoxy)methyl)-4-oxo-4H-thieno[3,4-c]pyrrol-5(6H)-yl)piperidine-2,6-dione] |  |  | ≥ 75% |  |  | > 90% | ≥ 75% |  |  | 
